The source made the active and inactive calls. The rule behind the calls is not given here.
Experiments:
Mus musculus [1] = test: Antifibrotic activity in bleomycin-induced C57BL/6 mouse model of pulmonary fibrosis assessed as reduction in lung index at 30 mg/kg, po administered thrice daily for 18 days starting from 10 days post-bleomycin challenge and measured post last dose; format: functional, organism-based
Mus musculus [2] = test: Antifibrotic activity in bleomycin-induced C57BL/6 mouse model of pulmonary fibrosis assessed as reduction in respiratory system resistance at 30 mg/kg, po administered thrice daily for 18 days starting from 10 days post-bleomycin challenge and measured post last dose; format: functional, organism-based
Mus musculus [3] = test: Antifibrotic activity in bleomycin-induced C57BL/6 mouse model of pulmonary fibrosis assessed as reduction in inspiratory capacity at 30 mg/kg, po administered thrice daily for 18 days starting from 10 days post-bleomycin challenge and measured post last dose; format: functional, organism-based
Mus musculus [4] = test: Antifibrotic activity in bleomycin-induced C57BL/6 mouse model of pulmonary fibrosis assessed as reduction in respiratory system elastance at 30 mg/kg, po administered thrice daily for 18 days starting from 10 days post-bleomycin challenge and measured post last dose; format: functional, organism-based
Mus musculus [5] = test: Antifibrotic activity in bleomycin-induced C57BL/6 mouse model of pulmonary fibrosis assessed as reduction in respiratory system compliance at 30 mg/kg, po administered thrice daily for 18 days starting from 10 days post-bleomycin challenge and measured post last dose; format: functional, organism-based
Mus musculus [6] = test: Antifibrotic activity in bleomycin-induced C57BL/6 mouse model of pulmonary fibrosis assessed as reduction in lung alpha-SMA level at 30 mg/kg, po administered thrice daily for 18 days starting from 10 days post-bleomycin challenge and measured post last dose by immunostaining-based histopathological analysis; format: functional, organism-based
Mus musculus [7] = test: Antifibrotic activity in bleomycin-induced C57BL/6 mouse model of pulmonary fibrosis assessed as reduction in lung hydroxyproline level at 30 mg/kg, po administered thrice daily for 18 days starting from 10 days post-bleomycin challenge and measured post last dose; format: functional, organism-based
Mus musculus [8] = test: Antifibrotic activity in bleomycin-induced C57BL/6 mouse model of pulmonary fibrosis assessed as reduction in lung fibronectin level at 30 mg/kg, po administered thrice daily for 18 days starting from 10 days post-bleomycin challenge and measured post last dose by Western blot analysis; format: functional, organism-based
Mus musculus [9] = test: Antifibrotic activity in bleomycin-induced C57BL/6 mouse model of pulmonary fibrosis assessed as reduction in lung damage at 30 mg/kg, po administered thrice daily for 18 days starting from 10 days post-bleomycin challenge and measured post last dose by H and E staining-based histopathological analysis; format: functional, organism-based
Mus musculus [10] = test: Antifibrotic activity in bleomycin-induced C57BL/6 mouse model of pulmonary fibrosis assessed as reduction in collagen fiber deposition at 30 mg/kg, po administered thrice daily for 18 days starting from 10 days post-bleomycin challenge and measured post last dose by Masson staining-based histopathological analysis; format: functional, organism-based
[11] = target: PI3-kinase p110-alpha/p85-alpha (Homo sapiens, UniProt P42336); test: Inhibition of recombinant human N-terminal FLAG-tagged full-length p110alpha/human p85alpha expressed in Sf9 insect cells using PIP2 as substrate by kinase-glo assay
[12] = Antifibrotic activity against mouse Mlg2908 cells assessed as reduction in cell viability measured after 72 hrs by MTT assay; format: functional, cell-based
[13] = Apparent permeability across apical to basolateral side in human Caco2 cells measured after 90 mins by LC-MS/MS analysis; conditions: Caco-2
[14] = Apparent permeability across basolateral to apical side in human Caco2 cells measured after 90 mins by LC-MS/MS analysis; conditions: Caco-2
PI3K p110 beta/p85 alpha = PI3K p110 beta/p85 alpha (Homo sapiens, UniProt P42338); test: Inhibition of recombinant human N-terminal FLAG-tagged full-length p110beta/human p85alpha expressed in Sf9 insect cells using PIP2 as substrate by ADP-glo assay
[15] = target: Phosphatidylinositol 4,5-bisphosphate 3-kinase catalytic subunit gamma isoform (Homo sapiens, UniProt P48736); test: Inhibition of recombinant human N-terminal His-tagged full-length p120gamma expressed in Sf9 insect cells using PIP2 as substrate by ADP-glo assay
[16] = target: PI3-kinase p110-delta/p85-alpha (Homo sapiens, UniProt O00329); test: Inhibition of recombinant human N-terminal GST-tagged full-length p110delta/human p85alpha expressed in Sf9 insect cells using PIP2 as substrate by ADP-glo assay
Mus musculus [17] = organism: Mus musculus; test: Inhibition of class 1 PI3K in mouse Mlg2908 cells assessed as reduction in AKT phosphorylation at S473 residue measured after 3 hrs by Western blot analysis; format: cell-based
Mus musculus [18] = organism: Mus musculus; test: Inhibition of class 1 PI3K in mouse Mlg2908 cells assessed as reduction in AKT phosphorylation at T308 residue measured after 3 hrs by Western blot analysis; format: cell-based
Mus musculus [19] = organism: Mus musculus; test: Inhibition of class 1 PI3K in mouse Mlg2908 cells assessed as reduction in p70S6K phosphorylation measured after 3 hrs by Western blot analysis; format: cell-based
Mus musculus [20] = organism: Mus musculus; test: Inhibition of class 1 PI3K in mouse Mlg2908 cells assessed as reduction in S6RP phosphorylation measured after 3 hrs by Western blot analysis; format: cell-based
[21] = Half life in ICR mouse at 0.5 mg/kg, iv by LC-MS/SM analysis; format: ADME, organism-based; conditions: in vivo
[22] = Clearance in ICR mouse at 0.5 mg/kg, iv by LC-MS/SM analysis; format: ADME, organism-based; conditions: in vivo
[23] = Volume of distribution at steady state in ICR mouse at 0.5 mg/kg, iv by LC-MS/SM analysis; format: ADME, organism-based; conditions: in vivo, read-out: Vdss
[24] = AUC (0 to infinity) in ICR mouse at 0.5 mg/kg, iv by LC-MS/SM analysis; format: ADME, organism-based; parameters: dose 0.5 mg/kg, time infinity, route intravenous; conditions: in vivo
[25] = Half life in ICR mouse at 5 mg/kg, po by LC-MS/SM analysis; format: ADME, organism-based; conditions: in vivo
[26] = Cmax in ICR mouse at 5 mg/kg, po by LC-MS/SM analysis; format: ADME, organism-based; parameters: dose 5 mg/kg, route oral; conditions: in vivo
[27] = AUC (0 to infinity) in ICR mouse at 5 mg/kg, po by LC-MS/SM analysis; format: ADME, organism-based; parameters: dose 5 mg/kg, route oral, time infinity; conditions: in vivo
[28] = Oral bioavailability in ICR mouse at 5 mg/kg by LC-MS/SM analysis; format: ADME, organism-based; conditions: in vivo

PI3-kinase p110-alpha/p85-alpha, sequence (P27986 whole entry): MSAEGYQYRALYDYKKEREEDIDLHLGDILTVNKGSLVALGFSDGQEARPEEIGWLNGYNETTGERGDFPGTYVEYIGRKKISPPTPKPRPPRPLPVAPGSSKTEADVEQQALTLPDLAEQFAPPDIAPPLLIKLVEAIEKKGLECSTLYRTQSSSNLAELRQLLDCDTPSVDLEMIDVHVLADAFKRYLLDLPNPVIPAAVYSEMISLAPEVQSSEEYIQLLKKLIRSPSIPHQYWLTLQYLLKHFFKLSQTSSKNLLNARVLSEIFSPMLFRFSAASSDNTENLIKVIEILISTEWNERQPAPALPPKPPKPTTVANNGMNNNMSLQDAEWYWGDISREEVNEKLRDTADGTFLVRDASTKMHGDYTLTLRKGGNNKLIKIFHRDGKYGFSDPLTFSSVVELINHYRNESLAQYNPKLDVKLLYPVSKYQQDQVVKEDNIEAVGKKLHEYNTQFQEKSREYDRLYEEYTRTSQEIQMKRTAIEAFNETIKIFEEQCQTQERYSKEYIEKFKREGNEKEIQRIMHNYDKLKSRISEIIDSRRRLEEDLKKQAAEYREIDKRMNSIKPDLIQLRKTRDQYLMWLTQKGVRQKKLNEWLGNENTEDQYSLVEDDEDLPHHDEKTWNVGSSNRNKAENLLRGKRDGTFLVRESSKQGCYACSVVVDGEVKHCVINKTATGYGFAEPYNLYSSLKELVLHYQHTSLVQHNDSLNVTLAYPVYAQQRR
PI3-kinase p110-alpha/p85-alpha, sequence (P42336 whole entry): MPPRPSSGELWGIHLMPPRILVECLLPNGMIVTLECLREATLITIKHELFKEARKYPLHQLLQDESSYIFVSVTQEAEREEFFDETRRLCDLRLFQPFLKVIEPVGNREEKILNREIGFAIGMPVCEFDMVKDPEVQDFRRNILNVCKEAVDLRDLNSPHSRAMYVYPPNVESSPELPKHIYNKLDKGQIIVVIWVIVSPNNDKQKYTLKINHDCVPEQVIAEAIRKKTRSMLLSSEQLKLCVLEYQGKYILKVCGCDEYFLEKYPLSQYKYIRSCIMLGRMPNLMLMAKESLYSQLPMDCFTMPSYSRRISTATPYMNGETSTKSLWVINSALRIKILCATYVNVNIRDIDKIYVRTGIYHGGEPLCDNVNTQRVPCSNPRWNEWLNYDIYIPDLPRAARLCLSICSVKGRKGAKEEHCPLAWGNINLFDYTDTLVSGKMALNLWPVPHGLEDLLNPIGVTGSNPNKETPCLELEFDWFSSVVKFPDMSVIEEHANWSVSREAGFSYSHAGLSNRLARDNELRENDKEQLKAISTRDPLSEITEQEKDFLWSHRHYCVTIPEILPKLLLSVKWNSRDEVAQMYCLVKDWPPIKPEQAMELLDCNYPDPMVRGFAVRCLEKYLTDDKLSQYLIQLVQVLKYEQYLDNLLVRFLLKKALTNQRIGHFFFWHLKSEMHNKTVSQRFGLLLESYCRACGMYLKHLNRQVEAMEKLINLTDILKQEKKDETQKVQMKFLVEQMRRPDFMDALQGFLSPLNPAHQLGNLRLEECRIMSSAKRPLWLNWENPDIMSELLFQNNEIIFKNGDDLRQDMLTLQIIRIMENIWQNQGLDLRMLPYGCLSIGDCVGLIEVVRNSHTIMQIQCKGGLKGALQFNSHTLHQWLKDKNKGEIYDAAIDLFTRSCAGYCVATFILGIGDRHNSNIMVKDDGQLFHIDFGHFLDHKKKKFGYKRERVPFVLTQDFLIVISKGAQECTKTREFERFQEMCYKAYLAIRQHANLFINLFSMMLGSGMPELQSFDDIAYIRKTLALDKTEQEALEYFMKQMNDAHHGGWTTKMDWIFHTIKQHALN
Phosphatidylinositol 4,5-bisphosphate 3-kinase catalytic subunit gamma isoform, sequence (P48736 whole entry, canonical isoform): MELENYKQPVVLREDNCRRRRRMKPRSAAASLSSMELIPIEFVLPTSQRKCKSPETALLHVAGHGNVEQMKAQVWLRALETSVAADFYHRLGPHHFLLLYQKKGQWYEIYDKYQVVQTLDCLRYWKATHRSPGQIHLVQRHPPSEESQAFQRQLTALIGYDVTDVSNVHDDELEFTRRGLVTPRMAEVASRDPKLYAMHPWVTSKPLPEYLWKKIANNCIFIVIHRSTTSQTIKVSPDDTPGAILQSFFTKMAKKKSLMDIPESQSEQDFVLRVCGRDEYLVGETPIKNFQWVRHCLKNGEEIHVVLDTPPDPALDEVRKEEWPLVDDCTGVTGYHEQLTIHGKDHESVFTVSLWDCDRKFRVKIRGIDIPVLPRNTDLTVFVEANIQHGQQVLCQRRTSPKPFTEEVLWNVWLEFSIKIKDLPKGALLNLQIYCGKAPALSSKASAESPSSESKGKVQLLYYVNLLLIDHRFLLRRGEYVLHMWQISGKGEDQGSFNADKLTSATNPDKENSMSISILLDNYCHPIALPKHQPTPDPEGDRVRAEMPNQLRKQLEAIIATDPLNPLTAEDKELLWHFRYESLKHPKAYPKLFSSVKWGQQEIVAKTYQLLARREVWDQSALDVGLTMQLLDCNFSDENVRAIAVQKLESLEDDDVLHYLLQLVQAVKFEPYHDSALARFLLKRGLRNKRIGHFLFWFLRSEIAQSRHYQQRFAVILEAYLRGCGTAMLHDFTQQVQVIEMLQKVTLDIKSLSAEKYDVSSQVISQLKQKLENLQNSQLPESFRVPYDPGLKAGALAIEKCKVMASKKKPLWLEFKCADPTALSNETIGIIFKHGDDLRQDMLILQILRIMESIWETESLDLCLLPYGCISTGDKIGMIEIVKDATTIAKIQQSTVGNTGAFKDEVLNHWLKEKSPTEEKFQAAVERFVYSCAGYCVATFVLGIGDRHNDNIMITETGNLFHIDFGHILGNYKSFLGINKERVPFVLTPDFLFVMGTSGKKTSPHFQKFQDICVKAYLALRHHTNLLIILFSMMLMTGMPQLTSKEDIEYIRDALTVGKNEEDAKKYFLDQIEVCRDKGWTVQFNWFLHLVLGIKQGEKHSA
PI3K p110 beta/p85 alpha, sequence (P27986 whole entry, canonical isoform): as the sequence (P27986 whole entry) above
PI3K p110 beta/p85 alpha, sequence (P42338 whole entry, canonical isoform): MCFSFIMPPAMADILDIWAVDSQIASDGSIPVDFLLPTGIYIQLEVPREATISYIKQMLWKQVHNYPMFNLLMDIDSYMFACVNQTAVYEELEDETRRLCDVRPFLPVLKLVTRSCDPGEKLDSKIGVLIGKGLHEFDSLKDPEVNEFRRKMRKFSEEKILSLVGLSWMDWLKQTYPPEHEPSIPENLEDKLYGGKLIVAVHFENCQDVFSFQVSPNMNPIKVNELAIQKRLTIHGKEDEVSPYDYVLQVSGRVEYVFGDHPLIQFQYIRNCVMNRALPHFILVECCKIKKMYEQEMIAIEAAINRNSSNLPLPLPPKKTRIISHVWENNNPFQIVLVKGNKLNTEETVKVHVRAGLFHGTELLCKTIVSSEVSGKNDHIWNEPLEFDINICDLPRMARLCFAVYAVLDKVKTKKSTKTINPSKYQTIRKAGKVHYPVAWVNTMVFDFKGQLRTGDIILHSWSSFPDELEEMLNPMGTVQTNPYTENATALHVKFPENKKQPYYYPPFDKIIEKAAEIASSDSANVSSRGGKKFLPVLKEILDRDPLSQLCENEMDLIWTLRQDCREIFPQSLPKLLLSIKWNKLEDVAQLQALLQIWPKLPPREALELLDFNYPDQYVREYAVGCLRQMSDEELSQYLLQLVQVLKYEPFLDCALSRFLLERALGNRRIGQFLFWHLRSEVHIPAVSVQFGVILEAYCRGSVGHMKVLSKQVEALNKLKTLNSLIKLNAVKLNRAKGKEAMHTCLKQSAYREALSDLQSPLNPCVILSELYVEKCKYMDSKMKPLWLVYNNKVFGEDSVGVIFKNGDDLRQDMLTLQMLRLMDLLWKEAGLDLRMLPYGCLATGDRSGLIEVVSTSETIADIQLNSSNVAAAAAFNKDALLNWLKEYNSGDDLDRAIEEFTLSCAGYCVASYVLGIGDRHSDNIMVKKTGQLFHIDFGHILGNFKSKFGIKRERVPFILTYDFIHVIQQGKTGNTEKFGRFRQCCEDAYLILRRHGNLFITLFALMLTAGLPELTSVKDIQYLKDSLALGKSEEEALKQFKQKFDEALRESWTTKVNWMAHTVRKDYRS
PI3-kinase p110-delta/p85-alpha, sequence (P27986 whole entry): as the sequence (P27986 whole entry) above
PI3-kinase p110-delta/p85-alpha, sequence (O00329 whole entry): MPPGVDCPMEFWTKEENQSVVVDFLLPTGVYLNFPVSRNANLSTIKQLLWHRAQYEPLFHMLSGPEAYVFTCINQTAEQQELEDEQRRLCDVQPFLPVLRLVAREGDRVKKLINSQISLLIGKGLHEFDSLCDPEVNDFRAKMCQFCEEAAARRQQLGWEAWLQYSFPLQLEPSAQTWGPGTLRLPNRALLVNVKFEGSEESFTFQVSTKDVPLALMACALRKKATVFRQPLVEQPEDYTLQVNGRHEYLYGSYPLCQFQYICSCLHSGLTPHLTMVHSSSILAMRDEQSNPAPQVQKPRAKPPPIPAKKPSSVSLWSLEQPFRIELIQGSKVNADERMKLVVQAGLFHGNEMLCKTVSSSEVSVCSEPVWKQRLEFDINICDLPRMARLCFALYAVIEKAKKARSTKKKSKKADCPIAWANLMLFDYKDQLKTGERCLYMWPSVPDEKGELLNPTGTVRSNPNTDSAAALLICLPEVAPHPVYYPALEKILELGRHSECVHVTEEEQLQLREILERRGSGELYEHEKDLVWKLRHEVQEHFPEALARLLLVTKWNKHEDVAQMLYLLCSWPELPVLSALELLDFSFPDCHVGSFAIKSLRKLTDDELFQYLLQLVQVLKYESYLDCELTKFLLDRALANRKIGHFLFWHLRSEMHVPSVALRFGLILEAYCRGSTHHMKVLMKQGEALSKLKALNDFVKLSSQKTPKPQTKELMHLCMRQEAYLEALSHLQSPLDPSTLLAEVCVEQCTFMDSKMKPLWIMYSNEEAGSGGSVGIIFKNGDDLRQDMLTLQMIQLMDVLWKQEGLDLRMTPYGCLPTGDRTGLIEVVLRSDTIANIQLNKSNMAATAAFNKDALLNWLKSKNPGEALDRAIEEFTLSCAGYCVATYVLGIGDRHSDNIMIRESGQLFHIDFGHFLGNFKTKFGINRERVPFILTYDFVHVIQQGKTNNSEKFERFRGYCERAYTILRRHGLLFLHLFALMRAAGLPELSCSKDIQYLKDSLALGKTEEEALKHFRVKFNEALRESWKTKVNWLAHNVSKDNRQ

Row | SMILES | IC50 [11] | IC50 [12] | Papp A→B at 1.5 h [13] | Papp B→A at 1.5 h [14] | further results
1 | Cc1ccc(=O)n(-c2ccccc2)c1 | – | – | – | – | Activity (Mus musculus [1]): Active; Activity (Mus musculus [2]): Active; Activity (Mus musculus [3]): Active; Activity (Mus musculus [4]): Active; Activity (Mus musculus [5]): Active; Activity (Mus musculus [6]): Active; Activity (Mus musculus [7]): Active; Activity (Mus musculus [8]): Active; Activity (Mus musculus [9]): Active; Activity (Mus musculus [10]): Active
2 | COc1ncc(-c2cc(OCCN(C)C)c3ncnc(C)c3c2)cc1NS(=O)(=O)c1ccc(F)cc1F | 5.3 nM | 460 nM | 10 ×10⁻⁶ cm/s | 51 ×10⁻⁶ cm/s | –
3 | COc1ncc(-c2cc(OC)c3ncnc(C)c3c2)cc1NS(=O)(=O)c1ccc(F)cc1F | 1.2 nM | 130 nM | 35 ×10⁻⁶ cm/s | 31 ×10⁻⁶ cm/s | –
4 | COc1ncc(-c2cc(OCC3CCN(C)CC3)c3ncnc(C)c3c2)cc1NS(=O)(=O)c1ccc(F)cc1F | 1.6 nM | 81 nM | 8.8 ×10⁻⁶ cm/s | 38 ×10⁻⁶ cm/s | –
5 | COc1ncc(-c2cc(OCC3CC3)c3ncnc(C)c3c2)cc1NS(=O)(=O)c1ccc(F)cc1F | 1.5 nM | 20 nM | 30 ×10⁻⁶ cm/s | 23 ×10⁻⁶ cm/s | –
6 | Cc1c(Cn2c(C)nc3c(C(=O)O)cc(N4CCOCC4)cc32)cccc1C(F)(F)F [GSK-2636771] | – | > 20000 nM | – | – | –
7 | Cc1nc(NC(=O)N2CCC[C@H]2C(N)=O)sc1-c1ccnc(C(C)(C)C(F)(F)F)c1 [ALPELISIB] | – | 3500 nM | – | – | –
8 | COc1ncc(-c2cc(OCCN3CCCC3)c3ncnc(C)c3c2)cc1NS(=O)(=O)c1ccc(F)cc1F | 6.8 nM | 1300 nM | 7.5 ×10⁻⁶ cm/s | 38 ×10⁻⁶ cm/s | –
9 | COc1ncc(-c2cc(OC(C)C)c3ncnc(C)c3c2)cc1NS(=O)(=O)c1ccc(F)cc1F | 2 nM | 13 nM | 32 ×10⁻⁶ cm/s | 22 ×10⁻⁶ cm/s | –
10 | CC[C@H](Nc1ncnc2[nH]cnc12)c1nc2cccc(F)c2c(=O)n1-c1ccccc1 [IDELALISIB] | – | > 20000 nM | – | – | –
11 | COc1ccc(-c2cc(OC3CCOCC3)c3ncnc(C)c3c2)cn1 | 31 nM | 17000 nM | 39 ×10⁻⁶ cm/s | 31 ×10⁻⁶ cm/s | –
12 | COc1ncc(-c2cc(OCC3CCOC3)c3ncnc(C)c3c2)cc1NS(=O)(=O)c1ccc(F)cc1F (stereo not given) | 0.95 nM | 4 nM | 34 ×10⁻⁶ cm/s | 39 ×10⁻⁶ cm/s | –
13 | C[C@H](NC(=O)c1c(N)nn2cccnc12)c1cc2cccc(C#Cc3cnn(C)c3)c2c(=O)n1-c1ccccc1 [EGANELISIB] | – | 980 nM | – | – | –
14 | COc1ncc(-c2ccc3nccc(-c4ccnnc4)c3c2)cc1NS(=O)(=O)c1ccc(F)cc1F [OMIPALISIB] | – | 4 nM | – | – | –
15 | COc1ncc(-c2cc(OCC3CCOCC3)c3ncnc(C)c3c2)cc1NS(=O)(=O)c1ccc(F)cc1F | 0.92 nM | 8 nM | 31 ×10⁻⁶ cm/s | 33 ×10⁻⁶ cm/s | –
16 | COc1ncc(-c2cc(OC3CCOC(C)(C)C3)c3ncnc(C)c3c2)cc1NS(=O)(=O)c1ccc(F)cc1F (stereo not given) | 0.89 nM | 2 nM | 31 ×10⁻⁶ cm/s | 22 ×10⁻⁶ cm/s | –
17 | COc1ncc(-c2cc(OC3CCN(C)CC3)c3ncnc(C)c3c2)cc1NS(=O)(=O)c1ccc(F)cc1F | 2.1 nM | 230 nM | 4.5 ×10⁻⁶ cm/s | 46 ×10⁻⁶ cm/s | –
18 | COc1ncc(-c2cc(OCCN3CCOCC3)c3ncnc(C)c3c2)cc1NS(=O)(=O)c1ccc(F)cc1F | 2.3 nM | 210 nM | 13 ×10⁻⁶ cm/s | 33 ×10⁻⁶ cm/s | –
19 | COc1ncc(-c2cc(OC3CCCCC3)c3ncnc(C)c3c2)cc1NS(=O)(=O)c1ccc(F)cc1F | 1.5 nM | 33 nM | 16 ×10⁻⁶ cm/s | 21 ×10⁻⁶ cm/s | –
20 | COc1ncc(-c2cc(OC3CCC3)c3ncnc(C)c3c2)cc1NS(=O)(=O)c1ccc(F)cc1F | 1 nM | 3 nM | 44 ×10⁻⁶ cm/s | 30 ×10⁻⁶ cm/s | –
21 | COc1ncc(-c2cc(OC3CCOCC3)c3nc(N)nc(C)c3c2)cc1NS(=O)(=O)c1ccc(F)cc1F | – | 140 nM | – | – | –
22 | COc1ncc(-c2cc(OC3CCCC3)c3ncnc(C)c3c2)cc1NS(=O)(=O)c1ccc(F)cc1F | 1 nM | 15 nM | 28 ×10⁻⁶ cm/s | 17 ×10⁻⁶ cm/s | –
23 | COc1ncc(-c2cc(O[C@@H]3CCOC3)c3ncnc(C)c3c2)cc1NS(=O)(=O)c1ccc(F)cc1F | 0.88 nM | 10 nM | 38 ×10⁻⁶ cm/s | 37 ×10⁻⁶ cm/s | IC50 (PI3K p110 beta/p85 alpha): 0.34 nM; IC50 [15]: 1.5 nM; IC50 [16]: 0.35 nM; inhibition (Mus musculus [17]): Dose-dependent effect; inhibition (Mus musculus [18]): Dose-dependent effect; inhibition (Mus musculus [19]): Dose-dependent effect; inhibition (Mus musculus [20]): Dose-dependent effect; half-life [21]: 0.36 h; clearance [22]: 16 mL/min/kg; Vd [23]: 0.5 L/kg; AUC(0-inf) [24]: 520 ng·h/mL; half-life [25]: 4.08 h; Cmax [26]: 1440 ng/mL; AUC(0-inf) [27]: 3170 ng·h/mL; bioavailability [28]: 58.7%
24 | C[C@H](Nc1ncnc2nc[nH]c12)c1cc2cccc(Cl)c2c(=O)n1-c1ccccc1 [DUVELISIB] | – | 6900 nM | – | – | –
25 | COc1ncc(-c2cc(OC(F)F)c3ncnc(C)c3c2)cc1NS(=O)(=O)c1ccc(F)cc1F | 1.7 nM | 130 nM | 34 ×10⁻⁶ cm/s | 17 ×10⁻⁶ cm/s | –

— ChEMBL document CHEMBL4321792, “Discovery of 4-Methylquinazoline Based PI3K Inhibitors for the Potential Treatment of Idiopathic Pulmonary Fibrosis” (J Med Chem, 2019)
